Results taken from patent US5093127A, “Preparation of FR115224 substrate for parenteral administration” (Fujisawa Pharmaceutical Co., Ltd., priority 1989, dated 1992).
Numbered stars: 1 amine (or outer) side, 2 acyl side, 3 side chain; on linkers, the order of the positions; unused ones are H or OH. Bridge positions count the residues as written; N and C are the ends. Square brackets hold non-standard residues; d marks the D form. Peptide text beside a SMILES is read from it. * marks the point of attachment. X2 = CN(/C(=C/c1ccc(O)cc1)C(=O)[*:2])[*:1]; aThr = C[C@H](O)[C@H](N)C(=O)O; X1 = CCCCCc1ccccc1CCC(=O)*

Columns and labels:
[1] = 20° C.; cited from earlier work
[2] = Solubility test of FR115224 substance in water with cyclodextrins; type: physicochemical; conditions: for Solubility of FR115224 substance: distilled water, room temperature
Method: FR115224 substance (125 mg) was charged in 13 sample bottles, respectively and distilled water (2.5 ml) was added thereto.
Then, α-cyclodextrin, β-cyclodextrin, hydroxypropyl β-cyclodextrin or γ-cyclodextrin was charged to each of the sample bottles in amounts of […] (cyclodextrin content: 0.16% w/v), 2.5 mg (cyclodextrin content: 1% w/v) or 12.5 mg (cyclodextrin content: 5% w/v), respectively. No cyclodextrin was charged in one sample bottle, which was made control. After stirring at room temperature for 12 hours, the concentration of FR115224 substance in each aqueous phase was measured to determine the solubility of FR115224 substance.

SMILES	Increase of water solubility by inclusion compound with β-cyclodextrin [1]	Effect of cyclodextrin on the solubility of FR115224 substance in water ([2]; conclusion from Table 1)	Solubility of FR115224 substance ([2]; no cyclodextrin (0 % w/v, control), stirred 12 hours) [% w/v]	Solubility of FR115224 substance ([2]; hydroxypropyl β-cyclodextrin 0.16 % w/v, 12 hours) [% w/v]	Solubility of FR115224 substance ([2]; hydroxypropyl β-cyclodextrin 1 % w/v, 12 hours) [% w/v]	Solubility of FR115224 substance ([2]; hydroxypropyl β-cyclodextrin 5 % w/v, 12 hours) [% w/v]	Solubility of FR115224 substance ([2]; α-cyclodextrin 0.16 % w/v, 12 hours) [% w/v]	Solubility of FR115224 substance ([2]; α-cyclodextrin 1 % w/v, 12 hours) [% w/v]	Solubility of FR115224 substance ([2]; α-cyclodextrin 5 % w/v, 12 hours) [% w/v]	Solubility of FR115224 substance ([2]; β-cyclodextrin 0.16 % w/v, 12 hours) [% w/v]	Solubility of FR115224 substance ([2]; β-cyclodextrin 1 % w/v, 12 hours) [% w/v]	Solubility of FR115224 substance ([2]; β-cyclodextrin 5 % w/v, 12 hours) [% w/v]	Solubility of FR115224 substance ([2]; γ-cyclodextrin 0.16 % w/v, 12 hours) [% w/v]	Solubility of FR115224 substance ([2]; γ-cyclodextrin 1 % w/v, 12 hours) [% w/v]	Solubility of FR115224 substance ([2]; γ-cyclodextrin 5 % w/v, 12 hours) [% w/v]
C(=C\c1ccccc1)/CN1CCN(C(c2ccccc2)c2ccccc2)CC1 [Cinnarizine]	about 5 times	–	–	–	–	–	–	–	–	–	–	–	–	–	–
CCCCCc1ccccc1CCC(=O)N[C@@H]1C(=O)N(C)/C(=C/c2ccc(O)cc2)C(=O)N[C@@H](CC(C)C)C(=O)N[C@H](Cc2ccccc2)C(=O)N[C@@H]([C@H](C)O)C(=O)N[C@@H](CC(N)=O)C(=O)N[C@@H](CO)C(=O)O[C@@H]1C [FR115224 substance] (X1-T[X2]L[dF][aThr]NS; ester 1-C)	–	markedly increase	0.003	0.009	0.06	0.49	0.008	0.03	0.14	0.013	0.11	0.34	0.006	0.03	0.16
